Data as given in patent publication US5849709A, “Saccharopeptides and derivatives thereof” (Glycomed Incorporated, priority 1995, dated 1998).

How the values were obtained:
β-glucuronidase = test: β-Glucuronidase inhibition assay (Sigma kit 325-A, phenolphthalein glucuronic acid substrate); assay type: biochemical; conditions: 15 μl of 50 mM 9β; for A550 value (β-glucuronidase assay): 550 nm, pH 4.5
Description: The β-glucuronidase inhibition assay is preferably performed in a solvent. Examples of the solvent include water and a suitable buffer, preferably an acetate or an AMP (2-amino-2-methyl-1-propanol) buffer. Phenolphthalein mono-β-glucuronic acid and a saccharopeptide substrate are treated with the enzyme at room temperature, at a pH of about 4-5. The reaction period ranges from 0.5-2 hours. After completion of the reaction, the enzymic reaction is stopped by adjusting the pH and the absorbance is measured at 550 nm.
Composition 9β was used to measure the β-glucuronidase activity, and the measurement was performed in the same manner as that of the conventional method.
The procedure was carried out according to instructions provided in the Sigma kit 325-A. The reagents used were provided in the kit and the proportions of the reagents used is described in the table below:
______________________________________
*0.2M sodium acetate buffer, pH 4.5 at 25° C.;
^# 30 mM phenolphthalein glucuronic acid (PGA), pH 4.5 at 25°
All components, except PGA, were pre-incubated at room temperature for 30 min, PGA was then added to the mixture. At various time points (0.5, 1 and 2h), 2 μl aliquots were removed and added to 1 ml assay diluent, mixed and absorbance read at 550 nm against the blank (A550). The assay diluent is a mixture of acetate buffer (1.44 ml), water (0.96 ml) and AMP (2-amino-2-methyl-1-propanol) buffer (12 ml, 0.1M AMP, pH 11, containing 0.2% sodium lauryl sulfate).

human recombinant bFGF = human recombinant bFGF (Homo sapiens, UniProt P09038); test: UC-PBA assay: binding of RO-12 UC cells to bFGF coated micro-titer wells; assay type: cell-based; conditions: for bFGF binding activity in the UC-PBA assay: heparin as positive control
Description: The effect of compositions 26 on the binding of RO-12 UC cells to bFGF coated micro-titer wells was determined as described by Ishihara, M., et al., Anal Biochem (1992) 202:310-315. (Also see U.S. Pat. No. 5,296,471, issued Mar. 22, 1994). Bound cells are readily quantitated as total protein.
The assay was run as follows: Fifty microliters of 10 μg/ml human recombinant bFGF was added to wells of a 96-well tissue culture plate and incubated overnight at 4° C. The wells were aspirated with PBS to remove any unbound bFGF, rinsed twice with PBS, and subsequently incubated with PBS containing 5% (v/v) fetal bovine serum for 1 hour at room temperature. RO-12 UC cells were suspended at a density of 3×10^6 cells/ml in PBS containing 5% fetal bovine serum. To this mixture was added the desired amount of sulfated composition, or heparin. They were made up in PBS plus 2.5% fetal bovine serum. A control was also run, containing only PBS plus 2.5% fetal bovine serum. Next, 100 μl of the cell suspension was immediately added to the microtiter wells, and incubated for 5 minutes, after which the wells were washed 3 times with PBS. Finally, the amount of cell protein bound to the wells was determined by dissolving the bound cells in 20 μl of 5% SDS and measuring the protein concentration of the cell lysates. BSA was used as the standard.
(§1) The APTT values of composition 26 were determined as described in U.S. Pat. No. 5,296,471. Table 3 lists the results for the UC-PBA assay, the ACE cell growth inhibition assay, and the APTT values respectively.

APTT = test: APTT
Description: as §1

Chain of human recombinant bFGF (P09038 134-288): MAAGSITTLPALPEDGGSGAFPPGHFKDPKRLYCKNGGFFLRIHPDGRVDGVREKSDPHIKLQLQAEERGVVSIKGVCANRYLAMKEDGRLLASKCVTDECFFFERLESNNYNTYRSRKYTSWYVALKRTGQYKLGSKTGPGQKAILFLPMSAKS

## [N-]=[N+]=N[C@@H]1O[C@H](C(=O)N[C@@H]2O[C@H](C(=O)O)[C@@H](O)[C@H](O)[C@H]2O)[C@@H](O)[C@H](O)[C@H]1O [Composition 9β, N-(β-D-glucopyran-1-osyluronic acid)-1-azido-1-deoxy-β-D-glucopyranuronamide]
β-glucuronidase
  reduction of β-glucuronidase activity: about 85%
β-glucuronidase; 0.5 h, room temperature (control 0.104)
  A550 value (β-glucuronidase assay): 0.014
β-glucuronidase; 1.0 h, room temperature (control 0.199)
  A550 value (β-glucuronidase assay): 0.030
β-glucuronidase; 2.0 h, room temperature (control 0.396)
  A550 value (β-glucuronidase assay): 0.059

## Heparin [reference compound]
Human recombinant bFGF
  bFGF binding activity in the UC-PBA assay: inhibits RO-12 UC cell binding

## O=C(CCC(=O)N[C@@H]1O[C@H](COS(=O)(=O)O)[C@@H](O[C@H]2O[C@H](COS(=O)(=O)O)[C@@H](O[C@H]3O[C@H](COS(=O)(=O)O)[C@@H](OS(=O)(=O)O)[C@H](OS(=O)(=O)O)[C@H]3OS(=O)(=O)O)[C@H](OS(=O)(=O)O)[C@H]2OS(=O)(=O)O)[C@H](OS(=O)(=O)O)[C@H]1OS(=O)(=O)O)N[C@@H]1O[C@H](COS(=O)(=O)O)[C@@H](O[C@H]2O[C@H](COS(=O)(=O)O)[C@@H](O[C@H]3O[C@H](COS(=O)(=O)O)[C@@H](OS(=O)(=O)O)[C@H](OS(=O)(=O)O)[C@H]3OS(=O)(=O)O)[C@H](OS(=O)(=O)O)[C@H]2OS(=O)(=O)O)[C@H](OS(=O)(=O)O)[C@H]1OS(=O)(=O)O [Composition 26]
Human recombinant bFGF; RO-12 UC cells, bFGF coated wells
  IC50: 0.372 µM
Human recombinant bFGF
  bFGF binding activity in the UC-PBA assay: comparable to heparin
APTT; as described in U.S. Pat. No. 5,296,471
  APTT value: 14.2%
APTT; versus other compounds of similar size
  APTT value, comparison in words: significantly lower than that of other compounds of similar size
